Experimental data taken from the NIST ThermoML archive (doi:10.1016/j.tca.2012.10.004).
± gives the expanded uncertainty stated by the source.

Test: refractive index (Na D-line) (dimensionless); xn = mol fraction of the nth substance listed
Details: 101 kPa, Liquid, Standard Abbe refractometry

CN(CCO)CCO [N-methyldiethanolamine] + O=S1(=O)CCCC1
refractive index
Details	x1 = 0.1001	x1 = 0.2012	x1 = 0.2999	x1 = 0.4003	x1 = 0.5005	x1 = 0.6	x1 = 0.7002	x1 = 0.8011	x1 = 0.8998	x1 = 1
293.15 K	1.48265 ± 0.00037	1.48037 ± 0.00037	1.47845 ± 0.00037	1.4766 ± 0.00037	1.47489 ± 0.00037	1.47343 ± 0.00037	1.47207 ± 0.00037	1.47093 ± 0.00037	1.47017 ± 0.00037	1.46935 ± 0.00037
298.15 K	1.48095 ± 0.00037	1.47872 ± 0.00037	1.47672 ± 0.00037	1.47488 ± 0.00037	1.47316 ± 0.00037	1.47164 ± 0.00037	1.47023 ± 0.00037	1.469 ± 0.00037	1.46802 ± 0.00037	1.46724 ± 0.00037
303.15 K	1.47886 ± 0.00037	1.4767 ± 0.00037	1.47473 ± 0.00037	1.47288 ± 0.00037	1.47124 ± 0.00037	1.46976 ± 0.00037	1.46844 ± 0.00037	1.46717 ± 0.00037	1.46615 ± 0.00037	1.46532 ± 0.00037
308.15 K	1.47712 ± 0.00037	1.47488 ± 0.00037	1.47281 ± 0.00037	1.47099 ± 0.00037	1.46931 ± 0.00037	1.46777 ± 0.00037	1.46639 ± 0.00037	1.46513 ± 0.00037	1.46413 ± 0.00037	1.4631 ± 0.00037
313.15 K	1.47549 ± 0.00037	1.47327 ± 0.00037	1.47109 ± 0.00037	1.46919 ± 0.00037	1.46741 ± 0.00037	1.46584 ± 0.00037	1.46442 ± 0.00037	1.46301 ± 0.00037	1.46184 ± 0.00037	1.46074 ± 0.00037
318.15 K	1.47376 ± 0.00037	1.47154 ± 0.00037	1.46941 ± 0.00037	1.46751 ± 0.00037	1.46573 ± 0.00037	1.46414 ± 0.00037	1.46267 ± 0.00037	1.46127 ± 0.00037	1.46005 ± 0.00037	1.45892 ± 0.00037
323.15 K	1.47203 ± 0.00037	1.46976 ± 0.00037	1.46769 ± 0.00037	1.46581 ± 0.00037	1.46403 ± 0.00037	1.46242 ± 0.00037	1.46091 ± 0.00037	1.45949 ± 0.00037	1.45821 ± 0.00037	1.45708 ± 0.00037
328.15 K	1.47021 ± 0.00037	1.46788 ± 0.00037	1.46596 ± 0.00037	1.46404 ± 0.00037	1.46226 ± 0.00037	1.46061 ± 0.00037	1.45905 ± 0.00037	1.45761 ± 0.00037	1.45636 ± 0.00037	1.45513 ± 0.00037
